Assay results published in patent US8153624B2, “Compounds and methods for modulating FXR” (Eli Lilly and Company, priority 2007, dated 2012).

Experiments:
LDLR−/− mice = assay: LDLR−/− Serum Lipid Modulation; assay type: in vivo; settings: male LDLR−/− mice on western diet, 10 mg/kg once daily oral gavage, seven days
Experimental: LDLR−/− Serum Lipid Modulation
Acclimate animals for two weeks prior to study initiation. Maintain mice on a 12:12 hour light-dark cycle at 21° C. Provide deionized water ad libitum and maintain for two weeks on ‘western diet’ TD 88137 Diet (42% fat, 0.15% cholesterol, Harlan Teklad, Madison, Wis., USA) ad libitum. Optimize groups of five ten-week-old male LDLR−/− mice based on serum triglyceride and cholesterol levels. […] Separate lipoprotein fractions by FPLC, and quantify cholesterol with an in-line detection system. […] The colored product produced in the presence of cholesterol is monitored in the flow stream at 505 nm, and the analog voltage from the monitor is converted to a digital signal for collection and analysis. The change in voltage corresponding to change in cholesterol concentration is plotted vs. time, and the area under the curve corresponding to the elution of VLDL-C and HDL-C is calculated using Turbo Chrome® version 4.12F12 software (PerkinElmer Corporation). […]

[1] = molecular target: T1, human FXR ligand-binding domain (Homo sapiens, UniProt Q96RI1); assay: FXR-SRC-1 Cofactor Recruitment Assay (Alpha Screen); assay type: biochemical; settings: FXR-SRC-1 interaction
T1 construct: purchased Invitrogen Corporation
T1 sequence (Q96RI1 242-472 isoform Q96RI1-2 limits assumed): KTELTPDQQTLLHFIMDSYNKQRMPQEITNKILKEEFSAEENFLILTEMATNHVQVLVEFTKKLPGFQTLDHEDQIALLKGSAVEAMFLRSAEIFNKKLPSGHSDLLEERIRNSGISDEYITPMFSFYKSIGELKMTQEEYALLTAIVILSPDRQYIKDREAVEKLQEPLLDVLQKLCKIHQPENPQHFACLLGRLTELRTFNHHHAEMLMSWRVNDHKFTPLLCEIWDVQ
T1 sequence (Q15788 600-774 partner limits assumed): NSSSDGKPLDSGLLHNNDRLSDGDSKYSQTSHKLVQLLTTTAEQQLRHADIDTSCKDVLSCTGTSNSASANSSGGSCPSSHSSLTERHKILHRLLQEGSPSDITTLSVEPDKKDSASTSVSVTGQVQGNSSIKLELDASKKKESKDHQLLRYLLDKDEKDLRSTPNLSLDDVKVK
Experimental: FXR-SRC-1 Cofactor Recruitment Assay
Compounds are evaluated by an FXR-SRC-1 Cofactor Recruitment assay using the Alpha (Amplified Luminescent Proximity Homogeneous Assay) Screen technology according to the manufacturer instructions (Perkin Elmer Corporation, Norwalk, Conn., USA) at various concentrations. Mix purified 6-HIS-tagged human FXR ligand-binding domain (amino acids 242-472), purified GST-tagged human SRC-1 nuclear receptor-interacting domain (amino acids 220-394), Nickel Chelate donor beads (Perkin Elmer Corporation) and Anti-GST antibody acceptor beads (Perkin Elmer Corporation) together and aliquot 12 μL per well into 384 well plates. Add compounds in 3 μL per well for a total assay volume of 15 μL and incubate at room temperature in the dark for 4 hours. After incubation, compounds that bind FXR and induce the interaction between the FXR and SRC-1 (available from Invitrogen Corporation Carlsbad, Calif., USA) would bring the two bead types into proximity generating luminescence that is quantified. Calculate EC50 values. Exemplified compounds of the invention are found to be effective in the SRC-1 FXR interaction assay with EC50s of about 38-5200 nM.

Human FXR = molecular target: T2, Human FXR (Homo sapiens, UniProt Q96RI1); assay: Human FXR/FXR-Response Element Luciferase Reporter Cotransfection Assay; assay type: cell-based
T2 construct: expressed in transfected cells
T2 sequence (Q96RI1 1-486): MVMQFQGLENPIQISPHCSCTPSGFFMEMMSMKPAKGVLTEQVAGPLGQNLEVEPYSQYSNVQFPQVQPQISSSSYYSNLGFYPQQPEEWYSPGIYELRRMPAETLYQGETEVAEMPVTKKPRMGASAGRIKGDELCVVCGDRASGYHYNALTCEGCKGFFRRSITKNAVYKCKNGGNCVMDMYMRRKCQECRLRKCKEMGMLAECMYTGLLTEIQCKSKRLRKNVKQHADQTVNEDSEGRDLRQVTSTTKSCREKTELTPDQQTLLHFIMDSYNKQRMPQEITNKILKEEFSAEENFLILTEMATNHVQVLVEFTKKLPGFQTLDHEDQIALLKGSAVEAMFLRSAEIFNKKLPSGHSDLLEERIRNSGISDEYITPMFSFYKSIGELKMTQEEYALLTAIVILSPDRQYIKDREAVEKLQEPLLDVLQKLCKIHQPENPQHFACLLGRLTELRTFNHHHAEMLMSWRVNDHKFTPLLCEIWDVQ
Experimental: Human FXR/FXR-Response Element Luciferase Reporter Cotransfection Assay
Compounds of the present invention are tested using the Human FXR/FXR-Response Element Luciferase Reporter Cotransfection Assay. The assay is performed essentially as described in J. Biological Chem. 2006, 281 (52), 39831-39838, except that 10 μg total DNA per million cells is used. One of skill in the art is able to perform this assay without undue experimentation.

Row | Compound | lowers total cholesterol (LDLR−/− mice) | lowers triglycerides (LDLR−/− mice) | EC50 [1] [nM] | EC50 (Human FXR) [nM]
1 | Cc1cc(N2CCC(OCc3c(-c4c(Cl)cccc4Cl)noc3C3CC3)CC2)ccc1C(=O)O [Example 9, 4-{4-[5-Cyclopropyl-3-(2,6-dichloro-phenyl)-isoxazol-4-ylmethoxy]-piperidin-1-yl}-2-methyl-benzoic acid] | about 76% | about 75% | – | –
2 | O=C(O)c1ccc(N2CCC(OCc3c(-c4c(Cl)cccc4Cl)noc3C3CC3)CC2)cc1 [Example 7, 4-{4-[5-Cyclopropyl-3-(2,6-dichloro-phenyl)-isoxazol-4-ylmethoxy]-piperidin-1-yl}-benzoic acid] | – | – | ~325 | 220
